# Data: ChEMBL document CHEMBL5360596, “Triquinane Sesquiterpene Glycosides from the Basidiomycete Antrodiella zonata” (J Nat Prod, 2023)
# Assays:
# [1] = Immunosuppressive activity against B cell (unknown origin) assessed as inhibition of LPS-induced cell proliferation; type: functional, cell-based
# Staphylococcus aureus = experiment: Antibacterial activity against Staphylococcus aureus ATCC 29213 assessed as bacterial growth inhibition incubated for 24 hrs by photometric analysis; type: functional
compound,measurement,setting,value
CCCCCC[C@@H](O)C(=O)O[C@@H]1[C@@H]2[C@H](CC1(C)C)[C@H](O)[C@@]1([C@H](O)C(=O)OC)OCC(=O)[C@@]21C,IC50,[1],6.6 µM
CC1=C2[C@@H]3CC(C)(C)C[C@@H]3[C@H](O[C@@H]3OC[C@@H](O)[C@H](O)[C@H]3O)[C@@]2(C)CC1=O,MIC50,Staphylococcus aureus,69 µM
CC1=C2[C@@H]3CC(C)(C)C[C@@H]3[C@H](O[C@@H]3O[C@H](CO)[C@@H](O)[C@H](O)[C@H]3O)[C@@]2(C)CC1=O,MIC50,Staphylococcus aureus,35 µM
CC1(C)C[C@H]2[C@@H](C1)C1=CC(=O)C[C@]1(C)[C@H]2O[C@@H]1O[C@H](CO)[C@@H](O)[C@H](O)[C@H]1O,MIC50,Staphylococcus aureus,34 µM
